Reference: patent EP2272817A1, “PAI-1 INHIBITOR” (Institute of Medicinal Molecular Design, Inc., priority 2008, dated 2009)

target: T1, recombinant human PAI-1 (Homo sapiens, UniProt P05121); assay: biochemical; conditions: read-out: Inhibition Rate of PAI Activity (%)
T1 sequence (P05121 24-402): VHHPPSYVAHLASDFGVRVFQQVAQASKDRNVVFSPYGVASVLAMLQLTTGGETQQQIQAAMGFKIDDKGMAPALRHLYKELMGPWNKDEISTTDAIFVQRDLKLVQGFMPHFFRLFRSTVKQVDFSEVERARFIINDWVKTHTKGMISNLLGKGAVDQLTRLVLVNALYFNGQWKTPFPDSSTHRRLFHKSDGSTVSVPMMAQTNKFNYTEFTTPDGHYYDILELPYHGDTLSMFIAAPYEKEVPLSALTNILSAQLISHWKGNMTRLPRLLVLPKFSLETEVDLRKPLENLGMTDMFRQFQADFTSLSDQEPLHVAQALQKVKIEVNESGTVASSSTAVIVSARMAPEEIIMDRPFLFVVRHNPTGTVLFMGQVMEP

Structure (SMILES) | inhibition at 5 µM [%] | inhibition at 10 µM [%] | inhibition at 25 µM [%]
Cc1cc(C)cc(COc2ccc(-c3ccc(OC(F)(F)F)cc3)cc2CC(=O)O)c1 [Compound 11] | 41 | 84 | 99
O=C(O)/C=C/c1cc(-c2ccc(OC(F)(F)F)cc2)ccc1Oc1ccc(OC(F)(F)F)cc1 [Compound 15] | 23 | 47 | 94
O=C(O)CCc1cc(-c2ccc(OC(F)(F)F)cc2)ccc1Oc1ccc(OC(F)(F)F)cc1 [Compound 16] | 23 | 46 | 96
O=C(O)CCc1cc(-c2ccc(OC(F)(F)F)cc2)ccc1OCc1ccc(F)cc1 [Compound 20] |  | 10 | 53
O=C(O)CCc1cc(-c2ccc(OC(F)(F)F)cc2)ccc1OCc1ccccc1C(F)(F)F [Compound 21] |  | 11 | 70
O=C(O)CCc1cc(-c2ccc(OC(F)(F)F)cc2)ccc1OCc1ccc(-c2ccccc2)cc1 [Compound 29] | 21 | 56 | 88
O=C(O)/C=C/c1cc(-c2ccc(OC(F)(F)F)cc2)ccc1OCc1cccc(C(F)(F)F)c1 [Compound 57] | 24 | 53 | 82
O=C(O)CCc1cc(-c2ccc(OC(F)(F)F)cc2)ccc1OCc1cccc(C(F)(F)F)c1 [Compound 58] | 22 | 53 | 97
Cc1cc(C)cc(COc2ccc(-c3ccc(OC(F)(F)F)cc3)cc2CCC(=O)O)c1 [Compound 59] | 25 | 53 | 77
Cc1ccc(COc2ccc(-c3ccc(OC(F)(F)F)cc3)cc2CCC(=O)O)cc1 [Compound 61] | 21 | 48 | 97
O=C(O)CCc1cc(-c2ccc(OC(F)(F)F)cc2)ccc1OCc1ccc(OC(F)(F)F)cc1 [Compound 62] | 29 | 62 | 99

same assay, conditions: read-out: Inhibition Rate of PAI-1 Activity (%)

Structure (SMILES) | inhibition at 5 µM [%] | inhibition at 10 µM [%] | inhibition at 25 µM [%]
CC(C)c1ccc(Oc2ccc(/C=C/C(=O)O)c(Oc3ccc(C(C)C)cc3)c2)cc1 [Compound 72] | 32 | 72 | 98
CC(C)c1ccc(Oc2ccc(/C=C\C(=O)O)c(Oc3ccc(C(C)C)cc3)c2)cc1 [Compound 74] | 13 | 53 | 96
CC(C)(C)c1ccc(COc2cc(-c3ccc(OC(F)(F)F)cc3)ccc2/C=C/C(=O)O)cc1 [Compound 75] | 25 | 53 | 91
CC(C)(C)c1ccc(COc2cc(Oc3ccc(OC(F)(F)F)cc3)ccc2/C=C/C(=O)O)cc1 [Compound 77] | 27 | 51 | 73
CC(C)(C)c1ccc(Oc2cc(-c3ccc(OC(F)(F)F)cc3)ccc2/C=C/C(=O)O)cc1 [Compound 79] | 39 | 84 | 90
COc1cc(-c2ccc(OC(F)(F)F)cc2)cc(/C=C/C(=O)O)c1OCc1ccc(C(C)(C)C)cc1 [Compound 81] | 28 | 63 | 70
COc1cc(-c2ccc(OC(F)(F)F)cc2)cc(CCC(=O)O)c1OCc1ccc(C(C)(C)C)cc1 [Compound 82] | 26 | 59 | 98
Cc1cc(-c2ccc(OC(F)(F)F)cc2)cc(/C=C/C(=O)O)c1OCc1ccc(C(C)(C)C)cc1 [Compound 83] | 27 | 46 | 56
Cc1cc(-c2ccc(OC(F)(F)F)cc2)cc(CCC(=O)O)c1OCc1ccc(C(C)(C)C)cc1 [Compound 84] | 28 | 62 | 95

Further lines, results first:

inhibition at 5 µM [%] | inhibition at 10 µM [%] | inhibition at 25 µM [%] | Structure (SMILES)
40 | 61 | 85 | CC(C)(C)c1ccc(COc2cccc(Oc3ccc(OC(F)(F)F)cc3)c2/C=C/C(=O)O)cc1 [Compound 85]
44 | 81 | 96 | CC(C)(C)c1ccc(COc2c(/C=C/C(=O)O)cccc2-c2ccc(OC(F)(F)F)cc2)cc1 [Compound 87]
46 | 87 | 95 | CC(C)(C)c1ccc(Oc2cc(Oc3ccc(OC(F)(F)F)cc3)ccc2/C=C/C(=O)O)cc1 [Compound 89]
30 | 67 | 96 | CC(C)(C)c1ccc(COc2c(Cl)cc(-c3ccc(OC(F)(F)F)cc3)cc2/C=C/C(=O)O)cc1 [Compound 91]
25 | 63 | 97 | CC(C)(C)c1ccc(COc2c(Cl)cc(-c3ccc(OC(F)(F)F)cc3)cc2CCC(=O)O)cc1 [Compound 92]
51 | 87 | 94 | CC(C)(C)c1ccc(Oc2cccc(-c3ccc(OC(F)(F)F)cc3)c2/C=C/C(=O)O)cc1 [Compound 93]

target: T1, recombinant human PAI-1; assay: Test Example 2: Human PAI-1 Inhibitory Activity (pH 7.4 HEPES buffer, 10 minutes incubation with two-chain tPA); format: biochemical; parameters: purchased Molecular Innovations, Inc; conditions: read-out: Inhibition Rate of PAI-1 Activity (%)
Experimental: 0.1 M HEPES, 0.1 M NaCl. 1 mM EDTA. 0.1 % Polyethylene glycol 8,000 (Hampton Research Corporation),
2 mM Dimethyldecylphoshine oxide [Apo-10] (Fluka Corporation)

Structure (SMILES) | inhibition at 0.1 µM [%] | inhibition at 0.3 µM [%] | inhibition at 1 µM [%] | inhibition at 3 µM [%]
O=C(O)C(=O)N(CCCCc1ccccc1)c1cc(-c2ccc(OC(F)(F)F)cc2)ccc1OC1CCCC1 [Compound 658] | 9 | 20 | 97 | > 99
O=C(O)C(=O)N(CCCCc1ccccc1)c1cc(-c2ccc(OC(F)(F)F)cc2)ccc1OC1CCCCCC1 [Compound 659] | 12 | 26 | > 99 | 96
O=C(O)C(=O)N(Cc1ccc2ccccc2c1)c1ccc(-c2ccc(OC(F)(F)F)cc2)cc1 [Compound 661] | 6 | 11 | 27 | > 99
Cc1cc(C)cc(COc2ccc(-c3ccc(OC(F)(F)F)cc3)cc2N(CCCCc2ccccc2)C(=O)C(=O)O)c1 [Compound 662] | 18 | 28 | 98 | 95
CC(C)(C)[C@H]1CC[C@H](N(C(=O)C(=O)O)c2ccc(-c3ccc(OC(F)(F)F)cc3)cc2)CC1 [Compound 665] | 9 | 8 | 67 | > 99
CC(C)(C)[C@H]1CC[C@@H](N(C(=O)C(=O)O)c2ccc(-c3ccc(OC(F)(F)F)cc3)cc2)CC1 [Compound 666] | 0 | 21 | 89 | 98
CCCCCCCCCCN(C(=O)C(=O)O)c1ccc(-c2ccc(OC(F)(F)F)cc2)cc1 [Compound 669] | 28 | 34 | > 99 | > 99
CCCCCOc1ccc(-c2ccc(OC(F)(F)F)cc2)cc1N(CCCCc1cc(C)ccc1C)C(=O)C(=O)O [Compound 670] | 6 | 55 | 97 | 94
O=C(O)C(=O)N(CCCCc1ccccc1)c1ccc(-c2ccc3ccccc3c2)cc1 [Compound 671] | 26 | 12 | 23 | 92
CCCCCOc1ccc(-c2cc(C)cc(C)c2)cc1N(CCCCc1ccccc1)C(=O)C(=O)O [Compound 672] | 3 | 15 | 92 | > 99
O=C(O)C(=O)N(CCCCc1ccccc1)c1ccc(N2CCCC2)c(-c2ccc(OC(F)(F)F)cc2)c1 [Compound 673] | 0 | 15 | > 99 | > 99
O=C(O)C(=O)N(CCCCc1ccccc1)c1ccc(N2CCCCCC2)c(-c2ccc(OC(F)(F)F)cc2)c1 [Compound 674] | 5 | 55 | > 99 | 98
O=C(O)C(=O)N(CCCCc1ccccc1)c1ccc(N2CCSCC2)c(-c2ccc(OC(F)(F)F)cc2)c1 [Compound 675] | 10 | 14 | 95 | > 99
O=C(O)C(=O)N(CCCCc1ccccc1)c1cc(-c2ccc(OC(F)(F)F)cc2)ccc1OCCCCCO [Compound 676] | 7 | 4 | 60 | > 99
CCCCCOc1ccc(-c2ccc(C)cc2)cc1N(CCCCc1ccccc1)C(=O)C(=O)O [Compound 677] | 19 | 17 | 93 | 96
CCCCCOc1ccc(-c2ccc(C(C)C)cc2)cc1N(CCCCc1ccccc1)C(=O)C(=O)O [Compound 678] | 19 | 33 | 97 | 94
CC(C)(C)[C@H]1CC[C@H](CN(C(=O)C(=O)O)c2ccc(-c3ccc(OC(F)(F)F)cc3)cc2)CC1 [Compound 679] | 6 | 9 | 84 | > 99
CC(C)(C)[C@H]1CC[C@@H](CN(C(=O)C(=O)O)c2ccc(-c3ccc(OC(F)(F)F)cc3)cc2)CC1 [Compound 680] | 7 | 9 | 77 | > 99
CCCCCOc1ccc(-c2ccc(OC(F)(F)F)cc2)cc1N(CC(=O)O)C(=O)CCCc1ccccc1 [Compound 682] | 2 | 5 | 32 | 98
